Source: US20210171576A1, “METHODS FOR TREATING CANCER WITH ACYLDEPSIPEPTIDE ANALOGS” (priority 2018, published 2021)
Where a SMILES comes first, the peptide text is derived from it. Bridges are numbered along the chain shown (N, C = ends). [ ]: non-standard residue; d: D form. The star is where a group is joined. Octatrienoyl(2E,4E,6E) = C/C=C/C=C/C=C/C(=O)*; Phe(3,5-F2) = N[C@@H](Cc1cc(F)cc(F)c1)C(=O)O; Pip(4S-Me) = C[C@H]1CCN[C@H](C(=O)O)C1; Hexadienoyl(2E,4E) = C/C=C/C=C/C(=O)*; Pro(4R-Me) = C[C@H]1CN[C@H](C(=O)O)C1; Tiq1c(1S) = O=C(O)[C@H]1NCCc2ccccc21; Bta = N[C@@H](Cc1csc2ccccc12)C(=O)O; X12 = O=C(/C=C/c1cccc(C(F)(F)F)c1)*; Heptenoyl(2E) = CCCC/C=C/C(=O)*; aThr = C[C@H](O)[C@H](N)C(=O)O; Pip = O=C(O)[C@@H]1CCCCN1; X2 = O=C(/C=C/CC1CCCCC1)*; NMeA = CN[C@@H](C)C(=O)O; X11 = O=C(/C=C/C=C/CO)*; Cbz = O=C(OCc1ccccc1)*; Dap = NC[C@H](N)C(=O)O; Boc = CC(C)(C)OC(=O)*; X4 = CCCCC/C=C/C(=O)*; X5 = CCCCCC#CC(=O)*; X7 = CCC/C=C\C(=O)*; X8 = CCC/C=C/C(=O)*; X10 = CCCC#CC(=O)*; X9 = CCCCC#CC(=O)*

Target: T1, human mitochondrial CIpP (HsCIpP) (Homo sapiens, UniProt Q16740)
T1 construct: made in house; host or cells: E. coli SG1146 (BL21(DE3) ΔclpP::cat)
Assay: Screen of ADEP analogs against HsCIpP: relative degradation (RD) index, casein-FITC degradation relative to E. coli CIpAP
Assay type: biochemical
Parameters: key: casein-FITC degradation by HsClpP relative to EcClpAP
Conditions: for Hs RD1: RD value at 1 μM of the ADEP analog; for Hs RD5: RD value at 5 μM of the ADEP analog; for Hs RD25: RD value at 25 μM of the ADEP analog, measure of ability to activate HsCIpP
Source text: Structural analogs of acyldepsipeptide (ADEP) (Goodreid et al., 2016) that were previously developed as potential antibiotics against bacterial CIpP were screened and assessed for their ability to activate and dysregulate the protease activity of HsCIpP, by measuring their relative degradation (RD) index. Note that ADEP-28 was also previously reported by Carney et al. (2014). Details of the experimental protocol have been described in Leung et al., 2011. The RD index is defined as follows: […]
Δφ is the change in fluorescence after 6 hr of starting the reaction measured using 485 nm excitation and 535 nm emission, which primarily detects the signal from casein-FITC. E. coli CIpAP was used as a benchmark for maximum CIpP proteolytic activity. The CIpP in the numerator can be from any other organism. RD25 measurements refer to the measurement in the presence of 25 μM compound. All ADEP analogs were first screened at 25 μM, and their RD25 scores were calculated using the above formula and method as described in Leung et al., 2011 (FIG. 1A). Those that achieved RD25≥0.87 were screened a second time at 5 μM, followed by calculation of their RD5 scores. The top analogs with RD5≥0.74 were screened a third time at 1 μM, followed by calculation of their RD1 scores (FIG. 1B).
To identify ADEP analogs that allow HsCIpP to degrade folded proteins independent of HsCIpX+ATP (i.e., that activate or dysregulate HsCIpP), the inventors employed the in vitro screening method that was used for identifying small molecule activators of Escherichia coli CIpP (EcCIpP) (Leung et al., 2011). In this approach, the ability of HsCIpP to degrade FITC-labeled casein (casein-FITC) was measured and compared to the ability of EcCIpAP to degrade casein-FITC. This is quantitatively expressed as relative degradation (RD) index (Leung et al., 2011).

T1 sequence (Q16740 57-277): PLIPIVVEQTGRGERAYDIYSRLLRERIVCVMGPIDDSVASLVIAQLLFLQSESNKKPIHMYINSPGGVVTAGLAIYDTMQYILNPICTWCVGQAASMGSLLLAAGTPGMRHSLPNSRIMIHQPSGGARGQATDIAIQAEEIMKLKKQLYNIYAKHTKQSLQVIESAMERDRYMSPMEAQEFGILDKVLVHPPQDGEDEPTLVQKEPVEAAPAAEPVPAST

Row | SMILES | Hs RD1 | Hs RD5 | Hs RD25
1 | CCCC/C=C/C(=O)N[C@H](Cc1ccccc1)C(=O)N[C@H]1COC(=O)[C@@H]2CCCN2C(=O)[C@H](C)NC(=O)[C@@H]2CCCCN2C(=O)[C@@H]2CCCN2C1=O [ADEP-02] | 0.52 | 0.88 | 1.08
2 | C/C=C/C=C/C(=O)N[C@@H](Cc1ccccc1)C(=O)N[C@H]1COC(=O)[C@@H]2C[C@@H](C)CN2C(=O)[C@H](C)NC(=O)[C@H](C)N(C)C(=O)[C@@H]2CCCN2C1=O [ADEP-03] ({Hexadienoyl(2E,4E)}-FSP[NMeA]A[Pro(4R-Me)]; ester 2-C) | – | – | 0.66
3 | CCCC/C=C/C(=O)N[C@@H](Cc1ccccc1)C(=O)N[C@H]1COC(=O)[C@@H]2CCCN2C(=O)[C@H](C)NC(=O)[C@H](C)N(C)C(=O)[C@@H]2CCCN2C1=O [ADEP-01] ({Heptenoyl(2E)}-FSP[NMeA]AP; ester 2-C) | 0.22 | 0.70 | 0.96
4 | CCC/C=C/C(=O)N[C@@H](Cc1ccccc1)C(=O)N[C@H]1COC(=O)[C@@H]2CCCN2C(=O)[C@H](C)NC(=O)[C@H](C)N(C)C(=O)[C@@H]2CCCN2C1=O [ADEP-09] (X8-FSP[NMeA]AP; ester 2-C) | – | – | 0.76
5 | CCCC/C=C/C(=O)N[C@@H](Cc1cc(F)cc(F)c1)C(=O)N[C@H]1COC(=O)[C@@H]2C[C@@H](C)CN2C(=O)[C@H](C)NC(=O)[C@H](C)N(C)C(=O)[C@@H]2CCCN2C1=O [ADEP-06] ({Heptenoyl(2E)}-[Phe(3,5-F2)]SP[NMeA]A[Pro(4R-Me)]; ester 2-C) | 0.64 | 0.94 | 1.05
6 | CCC/C=C/C(=O)N[C@@H](Cc1cccc(F)c1)C(=O)N[C@H]1COC(=O)[C@@H]2C[C@@H](C)CN2C(=O)[C@H](C)NC(=O)[C@@H]2CCCCN2C(=O)[C@@H]2CCCN2C1=O [ADEP-20] | 0.53 | 0.90 | 1.04
7 | C[C@@H]1C[C@H]2C(=O)O[C@@H](C)[C@H](NC(=O)[C@H](Cc3cc(F)cc(F)c3)NC(=O)/C=C/CC3CCCCC3)C(=O)N3CCC[C@H]3C(=O)N3CCCC[C@H]3C(=O)N[C@@H](C)C(=O)N2C1 [ADEP-17] (X2-[Phe(3,5-F2)][aThr]P[Pip]A[Pro(4R-Me)]; ester 2-C) | 0.86 | 0.91 | 1.02
8 | C[C@@H]1NC(=O)[C@@H]2CCCCN2C(=O)[C@@H]2CCCN2C(=O)[C@@H](NC(=O)[C@H](Cc2ccccc2)NC(=O)c2ccc([N+](=O)[O-])cc2)COC(=O)[C@@H]2CCCN2C1=O [ADEP-24] | – | – | 0.00
9 | CCCC/C=C/C(=O)N[C@@H](Cc1ccccc1)C(=O)N[C@H]1COC(=O)[C@@H]2C[C@@H](C)CN2C(=O)[C@H](C)NC(=O)[C@@H]2CCCCN2C(=O)[C@@H]2CCCN2C1=O [ADEP-10] | 0.44 | 0.85 | 1.07
10 | CCCC#CC(=O)N[C@@H](Cc1ccccc1)C(=O)N[C@H]1COC(=O)[C@@H]2CCCN2C(=O)[C@H](C)NC(=O)[C@H](C)N(C)C(=O)[C@@H]2CCCN2C1=O [ADEP-23] (X10-FSP[NMeA]AP; ester 2-C) | – | – | 0.12
11 | CCCCC#CC(=O)N[C@@H](Cc1ccccc1)C(=O)N[C@H]1COC(=O)[C@@H]2CCCN2C(=O)[C@H](C)NC(=O)[C@H](C)N(C)C(=O)[C@@H]2CCCN2C1=O [ADEP-12] (X9-FSP[NMeA]AP; ester 2-C) | – | – | 0.36
12 | CCCCCC#CC(=O)N[C@@H](Cc1ccccc1)C(=O)N[C@H]1COC(=O)[C@@H]2CCCN2C(=O)[C@H](C)NC(=O)[C@H](C)N(C)C(=O)[C@@H]2CCCN2C1=O [ADEP-27] (X5-FSP[NMeA]AP; ester 2-C) | – | – | 0.64
13 | C[C@@H]1C[C@H]2C(=O)OC[C@H](NC(=O)[C@H](Cc3ccccc3)NC(=O)OCc3ccccc3)C(=O)N3CCC[C@H]3C(=O)N(C)[C@@H](C)C(=O)N[C@@H](C)C(=O)N2C1 [ADEP-16] (Cbz-FSP[NMeA]A[Pro(4R-Me)]; ester 2-C) | – | – | 0.06
14 | CCCCC/C=C/C(=O)N[C@@H](Cc1ccccc1)C(=O)N[C@H]1COC(=O)[C@@H]2CCCN2C(=O)[C@H](C)NC(=O)[C@H](C)N(C)C(=O)[C@@H]2CCCN2C1=O [ADEP-18] (X4-FSP[NMeA]AP; ester 2-C) | – | 0.72 | 1.07
15 | C/C=C/C=C/C=C/C(=O)N[C@@H](Cc1ccccc1)C(=O)N[C@H]1COC(=O)[C@@H]2C[C@@H](C)CN2C(=O)[C@H](C)NC(=O)[C@H](C)N(C)C(=O)[C@@H]2CCCN2C1=O [ADEP-05] ({Octatrienoyl(2E,4E,6E)}-FSP[NMeA]A[Pro(4R-Me)]; ester 2-C) | – | 0.69 | 0.98

Continued, values first:

Row | Hs RD1 | Hs RD5 | Hs RD25 | SMILES
16 | – | – | 0.00 | C[C@@H]1NC(=O)[C@H](C)N(C)C(=O)[C@@H]2CCCN2C(=O)[C@@H](NC(=O)[C@H](Cc2ccccc2)NC(=O)OC(C)(C)C)COC(=O)[C@@H]2CCCN2C1=O [ADEP-34] (Boc-FSP[NMeA]AP; ester 2-C)
17 | – | 0.49 | 0.87 | CCCC/C=C/C(=O)N[C@@H](Cc1csc2ccccc12)C(=O)N[C@H]1COC(=O)[C@@H]2C[C@@H](C)CN2C(=O)[C@H](C)NC(=O)[C@@H]2CCCCN2C(=O)[C@@H]2CCCN2C1=O [ADEP-42] ({Heptenoyl(2E)}-[Bta]SP[Pip]A[Pro(4R-Me)]; ester 2-C)
18 | 0.76 | 0.87 | 0.92 | CCCC/C=C/C(=O)N[C@@H](Cc1cc(F)cc(F)c1)C(=O)N[C@@H]1C(=O)N2CCC[C@H]2C(=O)N2CCCC[C@H]2C(=O)N[C@@H](C)C(=O)N2C[C@H](C)C[C@H]2C(=O)O[C@H]1C [ADEP-29] ({Heptenoyl(2E)}-[Phe(3,5-F2)][aThr]P[Pip]A[Pro(4R-Me)]; ester 2-C)
19 | – | – | 0.00 | C[C@@H]1NC(=O)[C@H](C)N(C)C(=O)[C@@H]2CCCN2C(=O)[C@@H](NC(=O)[C@@H](N)Cc2ccccc2)COC(=O)[C@@H]2CCCN2C1=O [ADEP-40] (H-FSP[NMeA]AP; ester 2-C)
20 | – | – | 0.00 | C[C@@H]1C[C@H]2C(=O)OC[C@H](NC(=O)[C@H](Cc3ccccc3)NC(=O)/C=C/C=C/CO)C(=O)N3CCC[C@H]3C(=O)N(C)[C@@H](C)C(=O)N[C@@H](C)C(=O)N2C1 [ADEP-36] (X11-FSP[NMeA]A[Pro(4R-Me)]; ester 2-C)
21 | – | – | 0.00 | C[C@@H]1C[C@H]2C(=O)OC[C@H](NC(=O)[C@H](Cc3ccccc3)NC(=O)OC(C)(C)C)C(=O)N3CCC[C@H]3C(=O)N(C)[C@@H](C)C(=O)N[C@@H](C)C(=O)N2C1 [ADEP-35] (Boc-FSP[NMeA]A[Pro(4R-Me)]; ester 2-C)
22 | – | – | 0.07 | CCC/C=C\C(=O)N[C@@H](Cc1ccccc1)C(=O)N[C@H]1COC(=O)[C@@H]2CCCN2C(=O)[C@H](C)NC(=O)[C@H](C)N(C)C(=O)[C@@H]2CCCN2C1=O [ADEP-33] (X7-FSP[NMeA]AP; ester 2-C)
23 | 0.76 | 0.89 | 0.95 | CCCC/C=C/C(=O)N[C@@H](Cc1cc(F)cc(F)c1)C(=O)N[C@@H]1C(=O)N2CCC[C@H]2C(=O)N2CC[C@H](C)C[C@H]2C(=O)N[C@@H](C)C(=O)N2C[C@H](C)C[C@H]2C(=O)O[C@H]1C [ADEP-38] ({Heptenoyl(2E)}-[Phe(3,5-F2)][aThr]P[Pip(4S-Me)]A[Pro(4R-Me)]; ester 2-C)
24 | 0.79 | 0.96 | 1.03 | CCCC/C=C/C(=O)N[C@@H](Cc1cc(F)cc(F)c1)C(=O)N[C@H]1CNC(=O)[C@@H]2C[C@@H](C)CN2C(=O)[C@H](C)NC(=O)[C@@H]2CCCCN2C(=O)[C@@H]2CCCN2C1=O [ADEP-32] ({Heptenoyl(2E)}-[Phe(3,5-F2)][Dap]P[Pip]A[Pro(4R-Me)]; lactam 2-C)
25 | – | – | 0.78 | C[C@@H]1C[C@H]2C(=O)O[C@@H](C)[C@H](NC(=O)[C@H](Cc3cc(F)cc(F)c3)NC(=O)/C=C/c3cccc(C(F)(F)F)c3)C(=O)N3CCC[C@H]3C(=O)N3CC[C@H](C)C[C@H]3C(=O)N[C@@H](C)C(=O)N2C1 [ADEP-39] (X12-[Phe(3,5-F2)][aThr]P[Pip(4S-Me)]A[Pro(4R-Me)]; ester 2-C)
26 | – | – | 0.00 | C[C@@H]1C[C@H]2C(=O)OC[C@H](NC(=O)[C@@H](N)Cc3ccccc3)C(=O)N3CCC[C@H]3C(=O)N(C)[C@@H](C)C(=O)N[C@@H](C)C(=O)N2C1 [ADEP-31] (H-FSP[NMeA]A[Pro(4R-Me)]; ester 2-C)
27 | 0.68 | 0.86 | 0.92 | CCCC/C=C/C(=O)N[C@@H](Cc1cc(F)cc(F)c1)C(=O)N[C@H]1COC(=O)[C@@H]2C[C@@H](C)CN2C(=O)[C@H](C)NC(=O)[C@@H]2c3ccccc3CCN2C(=O)[C@@H]2CCCN2C1=O [ADEP-37] ({Heptenoyl(2E)}-[Phe(3,5-F2)]SP[Tiq1c(1S)]A[Pro(4R-Me)]; ester 2-C)
